Assay results published in patent US20080200405A1, “Drug Resistance Reversal In Neoplastic Disease” (priority 2007, published 2008).

Experiments:
[1] = system: Human whole blood clot formation; settings: compound 4 at 1 ug and 10 ug
Angiogenesis in CAM = experiment: Neovascularization on the CAM (Inhibition of Angiogenesis in CAM); format: in vivo, chicken; settings: 30 ug
Experimental: In vivo neovascularization was examined by the method previously described by Auerbach et al. (J. Dev. Biol. 41:391-394 (1974)). Ten-day old chicken embryos were purchased from Spafas, Inc. (Preston, Conn.) and were incubated at 37° C. with 55% relative humidity. In the dark, with the aid of a candling lamp, a small hole was punctured in the shell concealing the air sac with a hypodermic needle. A second hole was punctured in the shell on the broadside of the egg directly over an […] portion of the embryonic membrane, as observed during candling. An artificial air sac was created beneath the second hole by applying gentle vacuum to the first hole using a small rubber squeeze bulb. The vacuum caused the chorioallantoic membrane (CAM) to separate from the shell. A window, approximately 1.0 cm^2, was cut in the shell over the dropped CAM with the use of a small crafts grinding wheel (Dremel, Division of Emerson Electric Company Racine, Wis.). The window allowed direct access to the underlying CAM. A pro-angiogenic agent was added to induce new blood vessel branches on the CAM of 10-day old embryos. […] Louis, Mo.) in a solution (95% ethanol and water). The disks were subsequently air dried under sterile conditions. The disks were then suspended in PBS (Phosphate Buffered Saline) and placed on growing CAMs. […] For inducing angiogenesis, sterile filter disks were saturated with bFGF (1 μg/ml) (Life Technologies, Gaithersburg, Md.) or other pro-angiogenesis factors and control disks were saturated with PBS without Calcium and Magnesium. Control disks were saturated with PBS without Calcium and Magnesium. Using sterile forceps one filter/CAM was placed from the window. The window was sealed with Highland brand transparent tape. After 24-48 hr, 10-25 ul of test agent was injected intravenously or added topically into the CAM membrane. Eight-Ten eggs/treatment group were used. CAM tissue directly beneath filter disk was harvested from embryos treated 48 hours prior with compound or control. Tissues were washed three times with PBS. Sections were placed in a 35-mm petri dish (Nalge Nunc, Rochester, N.Y.) and examined under a SV6 stereomicroscope (Karl Zeiss, Thornwood, N.Y.) at 50× magnification. […] Digital images of CAM sections from Petri dish were collected using a 3-CCD color video camera system (Toshiba America, New York, N.Y.). These images were analyzed using Image-Pro Plus software (Media Cybernetics, Silver Spring, Md.). The number of branch points in blood vessels within the circular region superimposed to the area of a filter disk was counted for each section. […] Tissues were washed three times with PBS. Sections were placed in a 35-mm Petri dish (Nalge Nunc; Rochester, N.Y.) and were examined under a SV6 stereomicroscope (Karl Zeiss; Thornwood, N.Y.) at 50× magnification. Digital images of CAM sections adjacent to filters were collected using a 3-CCD color video camera system (Toshiba America; New York, N.Y.) and analyzed with the Image-Pro Plus software (Media Cybernetics; Silver Spring, Md.). The number of vessel branch points contained in a circular region equal to the area of a filter disk was counted for each section. Percent inhibition data are expressed as the quotient of the experimental value minus the negative control value divided by the difference between the positive control value and the negative control value. One image was counted in each CAM preparation, and findings from eight CAM preparations were analyzed for each treatment condition. In addition, each experiment was performed three times. The resulting angiogenesis index is the mean ±SEM (Standard Error of Measurement) of new branch points in each set of treatment. Statistical analysis of blood vessel branching patterns are performed by 1-way analysis of variance (ANOVA) comparing experimental with corresponding control groups.

[2] = In vitro stability of OT-551 in human plasma; format: in vitro ADME
Experimental: The active metabolite of OT-551 (Cyclopropanecarboxylic acid 1-hydroxy-2,2,6,6-tetramethyl-piperidin-4-yl ester) is TP-H. The objective of this analysis was to determine the in vitro half-life of OT-551 in rat, rabbit, dog, and human plasma under standardized incubation conditions.
OT-551 was incubated with pooled rat, rabbit, dog, and human plasma for various times under standardized incubation conditions. Pre-labeled tubes containing pooled plasma from rats, rabbits, dogs, and humans were pre-incubated in a shaking 37° C. water bath. A OT-551 solution was added to the tubes at a final concentration of 1000 ng/mL. Time zero samples (n=5) were immediately removed and transferred into tubes containing a stabilizer solution (DTPA, acetylcysteine and ascorbic acid), the LC/MS/MS assay internal standard and methanol. […] The tubes were vortexed, placed on ice, followed by centrifugation. One hundred-μL aliquots of the supernatant were transferred into HPLC sample vials. Additional tubes (n=5 at each time point) were incubated for 5, 10, 20, 30, 60, 120, and 240 minutes at 37° C. and thereafter processed. The amount of OT-551 and TP-H in each incubated sample was quantified using validated LC/MS/MS assays.

[3] = system: drug sensitive and resistant cell lines SKN-SH, Neuro2A, Saos2, HL-60; experiment: Reversal of drug resistance in various cancer types (OT-551 with or without doxorubicin); format: cell-based, human, murine; settings: in combination with doxorubicin; 96 hours
Experimental: This example illustrates that OT-551 and analogs reverse drug resistance to non-anthracycline drugs in various cancer types. The effects of analogs were tested on drug sensitive and resistant (R) cell lines corresponding to various cancer types, including the human neuroblastoma cell line SKN-SH (ATCC Cat. No. HTB-1), the murine neuroblastoma cell line Neuro2A (ATCC Cat. No. CCL-131), the osteosarcoma cells Saos2 (ATCC Cat. No. HTB-85) and the leukemia cell line HL-60 (ATCC Cat. No. CCL240). The cells were treated with OT-551 with or without doxorubicin as described above. Cell viability was calculated after 96 hours of incubation with the drug combination.

[4] = Ocular permeability and retina levels after topical administration; format: in vivo

CC1(C)CC(OC(=O)C2CC2)CC(C)(C)N1O.Cl [OT-551, 1-hydroxy-4-cyclopropanecarbonyloxy-2,2,6,6-tetramethylpiperidine hydrochloride]
effect on clot formation with Bevacizumab/Ranibizumab [1]: completely abrogated the clot formation | Inhibition of Angiogenesis in CAM, % Inhibition (Angiogenesis in CAM; listed as OT-551 HCl, hydrochloride): 74 ± 4% | inhibition in vivo at 0.03 mg (Angiogenesis in CAM; Gallus gallus): 75.2 ± 9.7% | Concentrations (ng/mL) of OT-551 in Human Plasma ([2]; incubation time 0 min): 775.47 ± 22.50 ng/mL | Concentrations (ng/mL) of OT-551 in Human Plasma ([2]; incubation time 5 min): 593.43 ± 7.55 ng/mL | Concentrations (ng/mL) of OT-551 in Human Plasma ([2]; incubation time 10 min): 503.18 ± 20.90 ng/mL | Concentrations (ng/mL) of OT-551 in Human Plasma ([2]; incubation time 20 min): 394.69 ± 6.72 ng/mL | Concentrations (ng/mL) of OT-551 in Human Plasma ([2]; incubation time 30 min): 316.37 ± 7.67 ng/mL | Concentrations (ng/mL) of OT-551 in Human Plasma ([2]; incubation time 60 min): 162.41 ± 9.77 ng/mL | Concentrations (ng/mL) of OT-551 in Human Plasma ([2]; incubation time 120 min): 32.22 ± 2.63 ng/mL | Concentrations (ng/mL) of OT-551 in Human Plasma ([2]; incubation time 240 min): 0.00 ± 0.00 ng/mL | effect on doxorubicin toxicity [3]: able to enhance doxorubicin toxicity in all the drug resistant cell lines tested | levels in the retina ([4]; after topical administration): good levels in the retina | permeability through the cornea ([4]; in vivo): good permeability through the cornea

CC1(C)CC(O)CC(C)(C)N1O [TEMPOL-H]
Inhibition of Angiogenesis in CAM, % Inhibition (Angiogenesis in CAM): 43 ± 10% | Concentrations (ng/mL) of TP-H in Human Plasma ([2]; OT-551 incubation time 0 min): 48.76 ± 2.84 ng/mL | Concentrations (ng/mL) of TP-H in Human Plasma ([2]; OT-551 incubation time 5 min): 186.71 ± 4.58 ng/mL | Concentrations (ng/mL) of TP-H in Human Plasma ([2]; OT-551 incubation time 10 min): 241.99 ± 8.05 ng/mL | Concentrations (ng/mL) of TP-H in Human Plasma ([2]; OT-551 incubation time 20 min): 310.10 ± 8.54 ng/mL | Concentrations (ng/mL) of TP-H in Human Plasma ([2]; OT-551 incubation time 30 min): 365.53 ± 14.44 ng/mL | Concentrations (ng/mL) of TP-H in Human Plasma ([2]; OT-551 incubation time 60 min): 449.85 ± 9.73 ng/mL | Concentrations (ng/mL) of TP-H in Human Plasma ([2]; OT-551 incubation time 120 min): 519.12 ± 19.52 ng/mL | Concentrations (ng/mL) of TP-H in Human Plasma ([2]; OT-551 incubation time 240 min): 501.39 ± 11.33 ng/mL
